Results reported in PubChem BioAssay (NCI).
Several values for one entry are separate records, joined by “and”; a condition that tells them apart may be missing. Equal entries are not always repeated.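 Test compounds were applied to cells in 96-well plates for 48 hours at 5 doses. At the GI50, growth is halved. TGI denotes the concentration required for complete inhibition of growth.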

Experiments:
Assay in all cases: growth of human tumour cells (NCI), 48 h
OVCAR-8 ovarian = test system: OVCAR-8 ovarian
M14 melanoma = test system: M14 melanoma
CAKI-1 renal = test system: CAKI-1 renal
OVCAR-4 ovarian = test system: OVCAR-4 ovarian
SNB-19 CNS = test system: SNB-19 CNS
HS 578T breast = test system: HS 578T breast
IGROV1 ovarian = test system: IGROV1 ovarian
NCI-H226 lung = test system: NCI-H226 lung
HCC-2998 colon = test system: HCC-2998 colon
UACC-257 melanoma = test system: UACC-257 melanoma

Compound	GI50 (OVCAR-8 ovarian)	TGI (OVCAR-8 ovarian)	GI50 (M14 melanoma)	TGI (M14 melanoma)	GI50 (CAKI-1 renal)	TGI (CAKI-1 renal)	GI50 (OVCAR-4 ovarian)	TGI (OVCAR-4 ovarian)	TGI (SNB-19 CNS)	TGI (HS 578T breast)	GI50 (IGROV1 ovarian)	TGI (IGROV1 ovarian)	GI50 (NCI-H226 lung)	TGI (NCI-H226 lung)	TGI (HCC-2998 colon)	GI50 (UACC-257 melanoma)	TGI (UACC-257 melanoma)	GI50 (SNB-19 CNS)	GI50 (HS 578T breast)	GI50 (HCC-2998 colon)
COC12C(COC(=O)NCCO)C3=C(C(=O)C(C)=C(N)C3=O)N1CC1NC12 (stereo not drawn)	55 µM	> 264 µM	49.9 µM	> 264 µM	4.99 µM	28.2 µM and 21.7 µM	53.2 µM	119 µM	169 µM	> 264 µM	39.8 µM	116 µM	30.2 µM	71 µM and 150 µM	99.3 µM	79.1 µM	238 µM	–	–	–
COc1cc2nnc3c4cccnc4[nH]c3c2cc1OC	3.91 µM and 1.25 µM	50 µM and > 100 µM	8.18 µM and 1.79 µM	27.4 µM and 3.49 µM	1.17 µM and 0.184 µM	–	1.95 µM and 1.6 µM	50 µM and > 100 µM	42.4 µM and 15.4 µM	50 µM and 82.7 µM	1.02 µM and 1.73 µM	19.4 µM and 5.83 µM	5.44 µM and 1.94 µM	21.4 µM and 5.11 µM	13.6 µM and 3.79 µM	9.13 µM and 3.32 µM	50 µM and 27.7 µM	9.04 µM and 2.77 µM	4.21 µM and 3.7 µM	2.28 µM and 1.95 µM
O=C(O)CN(CCN(CC(=O)O)CC(=O)O)CC(=O)O.[Mn+2]	> 100 µM	> 100 µM	> 100 µM	> 100 µM	> 100 µM	> 100 µM	> 100 µM	> 100 µM	> 100 µM	> 100 µM	> 100 µM	> 100 µM	> 100 µM	> 100 µM	> 100 µM	> 100 µM	> 100 µM	> 100 µM	> 100 µM	> 100 µM
CNCc1ccc(-c2cc(-c3nc(-c4ccc(S(=O)(=O)C(C)C)cc4)cnc3N)on2)cc1	2.31 µM	5.94 µM	1.18 µM	2.6 µM	2.71 µM	21.1 µM	5.05 µM	22.8 µM	36.8 µM	38 µM	1.2 µM	10.5 µM	18.8 µM	44.1 µM	19.6 µM	3.05 µM	9.35 µM	12.1 µM	4.61 µM	2.48 µM
C#Cc1ccc(-n2c(/C=C/c3ccc(O)cc3)nc3ncccc3c2=O)cc1	4.39 µM	47 µM	2.7 µM	8.08 µM	4.15 µM	> 100 µM	22.8 µM	> 100 µM	> 100 µM	30 µM	4.69 µM	35.4 µM	2.58 µM	13.1 µM	> 100 µM	6.3 µM	> 100 µM	6.26 µM	3.24 µM	25.7 µM
CCCCCC(=O)O[C@]1(C(C)=O)CCC2C3CCC4=CC(=O)CC[C@]4(C)C3CC[C@@]21C (stereo partly drawn)	2.61 µM	10.7 µM	2.55 µM	6.85 µM	1.75 µM	8.22 µM	2.03 µM	11.6 µM	> 64.8 µM	> 50.5 µM	2.7 µM	11.4 µM	1.8 µM	4.78 µM	7.56 µM	3.15 µM	12.6 µM	3.27 µM	0.421 µM	2.55 µM
Nc1nccc(-c2c(-c3ccc(F)cc3)nn3cc(C(F)(F)F)ccc23)n1	> 25 µM	> 25 µM	> 25 µM	> 25 µM	> 25 µM	> 25 µM	> 25 µM	> 25 µM	> 25 µM	> 25 µM	> 25 µM	> 25 µM	> 25 µM	> 25 µM	> 25 µM	> 25 µM	> 25 µM	> 25 µM	> 25 µM	> 25 µM
COCCN(Cc1ccc(F)cc1)c1ccc(CO)c(Cl)c1	29.9 µM	> 100 µM	38.9 µM	> 100 µM	21.2 µM	> 100 µM	1.82 µM	23 µM	> 100 µM	> 100 µM	0.559 µM	3.7 µM	0.152 µM	0.353 µM	> 100 µM	0.492 µM	2.5 µM	33.4 µM	60.9 µM	24 µM
[O]=[V]([OH])([OH])[OH]	> 100 µM	> 100 µM	> 100 µM	> 100 µM	25.6 µM	70.6 µM	54.2 µM	> 100 µM	> 100 µM	> 100 µM	> 100 µM	> 100 µM	> 100 µM	> 100 µM	> 100 µM	> 100 µM	> 100 µM	> 100 µM	> 100 µM	> 100 µM
ClCCOCCn1cnc2c(Cl)nc(Cl)nc21	10.3 µM	26.5 µM	13.4 µM	27.9 µM	2.61 µM	13.5 µM	17.3 µM	35.5 µM	30.5 µM	9.05 µM	3.34 µM	12.7 µM	16.3 µM	33.8 µM	2.88 µM	14.1 µM	28.5 µM	16.4 µM	2.51 µM	1.42 µM
COc1cc(/C=C/c2cc(/C=C/c3ccc(O)c(OC)c3)n(C(=O)c3ccccc3Br)n2)ccc1O	2.75 µM	12.4 µM	3.07 µM	> 100 µM	2.2 µM	> 100 µM	3.64 µM	22.8 µM	> 100 µM	48.6 µM	4.11 µM	> 100 µM	3.29 µM	56.5 µM	6.37 µM	3.36 µM	40.1 µM	2.7 µM	2.75 µM	2.48 µM
CN1CCN(c2c(F)cc(NC3=C(Cl)C(=O)c4ncccc4C3=O)cc2F)CC1	8.82 µM	> 100 µM	4.34 µM	15.3 µM	1.45 µM	2.77 µM	1.33 µM	2.66 µM	31.1 µM	56.4 µM	2.92 µM	11.5 µM	22.2 µM	55.9 µM	26.1 µM	1.68 µM	3.39 µM	17.1 µM	11.2 µM	11.5 µM
OCC1CC[N-]CC1.OCC1CC[N-]CC1.[Cl][Pt+2]([Cl])([Cl])[Cl]	31.1 µM	–	22.2 µM	65 µM	20.3 µM	81.5 µM	42.5 µM	–	–	–	25.2 µM	–	39.5 µM	–	–	31 µM	–	48 µM	45.8 µM	35.4 µM
Cc1cc(Br)c(NC(=O)c2c(-c3c(Cl)cccc3Cl)noc2C)c(Br)c1	> 100 µM	> 100 µM	> 100 µM	> 100 µM	7.81 µM	> 100 µM	73.4 µM	> 100 µM	> 100 µM	> 100 µM	> 100 µM	> 100 µM	82.5 µM	> 100 µM	> 100 µM	> 100 µM	> 100 µM	> 100 µM	26.5 µM	> 100 µM
Cc1cnc(C(=O)NNc2nc3sc4c(c3c(=O)[nH]2)C(C)CCC4)cn1 (stereo not drawn)	0.952 µM	16 µM	0.727 µM	9.52 µM	1.5 µM	18.5 µM	0.449 µM	12.6 µM	> 100 µM	84.4 µM	0.759 µM	15.8 µM	1.7 µM	12.3 µM	20.8 µM	2.61 µM	11.3 µM	1.29 µM	4 µM	1.63 µM
CCO/C=C1\SC(=S)N(c2ccc(OCC)cc2)C1=O	–	> 100 µM	–	> 100 µM	–	> 100 µM	–	> 100 µM	> 100 µM	> 100 µM	–	> 100 µM	–	> 100 µM	> 100 µM	–	> 100 µM	–	–	–
CCSCC1CC(O)(c2ccccc2)C(c2ccccc2)C(c2ccc(F)cc2)O1 (stereo not drawn)	2.64 µM	8.54 µM	1.74 µM	3.23 µM	1.58 µM	3.48 µM	2.41 µM	8.04 µM	7.6 µM	4.88 µM	2.68 µM	7.12 µM	1.97 µM	4.89 µM	4.58 µM	2.1 µM	4.88 µM	2.05 µM	1.83 µM	2.23 µM
OCCCCC#Cc1ccccc1C#Cc1cccc(C(F)(F)F)c1	18.8 µM	35.7 µM	21.5 µM	50.5 µM	21.3 µM	36.5 µM	14 µM	28.1 µM	36.4 µM	71.3 µM	14.4 µM	28.5 µM	18.3 µM	34 µM	32.3 µM	16.7 µM	31.8 µM	20.2 µM	29.7 µM	17.7 µM
COc1ccc(-c2nc3ccc(Cc4ccc5nc(-c6ccc(OC)cc6)[nH]c5c4)cc3[nH]2)cc1	0.0438 µM	1.17 µM	< 0.01 µM	0.111 µM	0.0509 µM	1.84 µM	0.189 µM	2.14 µM	5.8 µM	2.52 µM	0.0445 µM	2.26 µM	0.475 µM	2.56 µM	0.188 µM	1.5 µM	3.31 µM	0.0469 µM	0.0334 µM	0.027 µM
Cc1noc(NC(=O)Nc2ccccc2F)c1C#N	–	> 100 µM	–	> 42.6 µM	–	> 100 µM	–	> 100 µM	> 50.3 µM	> 56.4 µM	–	> 100 µM	–	> 100 µM	3.8 µM	–	> 51 µM	–	–	–
CCCCCCCCCCCC[C@@H](O)[C@H]1CC[C@H]([C@H](O)CC[C@H](O)[C@@H]2CC[C@@H](CCCCCCCC3=C[C@H](C)OC3=O)O2)O1	6.6 µM	> 50 µM	4.99 µM	> 50 µM	–	> 50 µM	–	> 50 µM	> 50 µM	> 50 µM	8.89 µM	> 50 µM	–	> 50 µM	> 50 µM	0.152 µM	–	9.69 µM	> 50 µM	–
